Laboratory results from patent publication US10519140B2, “Indolin-2-one derivatives” (Hoffmann-La Roche Inc., priority 2015, dated 2019).

target: T1, mouse ENT-1 transporter (Mus musculus, UniProt Q9JIM1); experiment: Adenosine transport activity (ENT1, [3H]-adenosine uptake inhibition); assay type: cell-based; conditions: stable cells expressing mouse ENT-1; [2,8-3H]-adenosine 6 nM, 20 min
T1 construct: expressed in transfected cells
T1 sequence (Q9JIM1 1-460): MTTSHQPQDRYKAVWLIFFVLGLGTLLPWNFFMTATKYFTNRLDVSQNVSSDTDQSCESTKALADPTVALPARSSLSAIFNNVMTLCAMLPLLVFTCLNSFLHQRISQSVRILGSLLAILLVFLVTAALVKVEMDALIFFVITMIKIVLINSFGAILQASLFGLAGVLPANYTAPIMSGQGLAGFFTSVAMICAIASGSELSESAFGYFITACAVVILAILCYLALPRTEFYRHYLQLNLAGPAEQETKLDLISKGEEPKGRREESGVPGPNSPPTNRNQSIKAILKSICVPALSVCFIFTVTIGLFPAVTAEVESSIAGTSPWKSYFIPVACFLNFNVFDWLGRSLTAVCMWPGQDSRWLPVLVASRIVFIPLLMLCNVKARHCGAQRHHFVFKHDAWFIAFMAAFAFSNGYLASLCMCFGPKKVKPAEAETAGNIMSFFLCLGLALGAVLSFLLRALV
Protocol: To measure adenosine transport activity of ENT-1 mammalian cells, stable cells expressing the mouse ENT-1 transporter were plated on day 1 in 96-well culture plates at the density of 60,000 cells/well, in complete DMEM/F12 medium supplemented with glutamax, 10% FBS and 10 μg/ml puromycin. On day 2, the medium was aspirated and the cells were washed twice with uptake buffer (10 mM Hepes-Tris, pH 7.4 containing 150 mM NaCl, 1 mM CaCl2, 2.5 mM KCl, 2.5 mM MgSO4, 10 mM D-glucose) (UB). For inhibition experiments, cells were then incubated at RT with various concentrations of compounds with 1% DMSO final. Non-specific uptake was defined in the presence of 10 μM S-(4-Nitrobenzyl)-6-thioinosine (NBTI, Sigma Cat #N2255). A solution containing [2,8-^3H]-adenosine 6 nM (40 Ci/mmol, American Radiolabeled chemicals Inc, Cat #ART 0287A) was then immediately added to the wells. The plates were then incubated for 20 min with gentle shaking and the reaction was stopped by aspiration of the mixture and washing (three times) with ice-cold UB. The cells were lysed by the addition of scintillation liquid, shaken 3 hours and the radioactivity in the cells was estimated using a microplates scintillation counter (TopCount NXT, Packard).

| IC50 [nM] | SMILES |
| --- | --- |
| 37.7 | Cc1ncc(-c2ccc3c(c2)N(c2ccc4cnn(C)c4c2)C(=O)C3(C)C)cn1 [Example 60, 3,3-Dimethyl-1-(1-methyl-1H-indazol-6-yl)-6-(2-methylpyrimidin-5-yl)indolin-2-one] |
| 57.5 | Cc1ncc(-c2ccc3c(c2)N(c2cccc(N4CCOCC4)n2)C(=O)C3(C)C)cn1 [Example 27, 3,3-Dimethyl-6-(2-methylpyrimidin-5-yl)-1-(6-morpholinopyridin-2-yl)indolin-2-one] |
| 163 | Cc1ncc(-c2ccc3c(c2)N(c2cncc(N)n2)C(=O)C3(C)C)cn1 [Example 2, 1-(6-Aminopyrazin-2-yl)-3,3-dimethyl-6-(2-methylpyrimidin-5-yl)indolin-2-one] |
| 114 | Cc1ncc(-c2ccc3c(c2)N(c2ccc4c(c2)N(C)C(=O)C4(C)C)C(=O)C3(C)C)cn1 [Example 41, 1′,3,3,3′,3′-Pentamethyl-6-(2-methylpyrimidin-5-yl)-[1,6′-biindoline]-2,2′-dione] |
| 126 | Cc1ncc(-c2ccc3c(c2)N(c2ccc(C)c(N)n2)C(=O)C3(C)C)cn1 [Example 29, 1-(6-Amino-5-methylpyridin-2-yl)-3,3-dimethyl-6-(2-methylpyrimidin-5-yl)indolin-2-one] |
| 110 | Cc1ncc(-c2ccc3c(c2)N(c2cncc(N4CCC45COC5)n2)C(=O)C3(C)C)cn1 [Example 14, 1-(6-(6-Oxa-1-azaspiro[3.3]heptan-1-yl)pyrazin-2-yl)-3,3-dimethyl-6-(2-methylpyrimidin-5-yl)indolin-2-one] |
| 6.7 | Cc1ncc(-c2ccc3c(c2)N(c2ccc4c(n2)NC(=O)C4(C)C)C(=O)C3(C)C)cn1 [Example 37, 6-(3,3-Dimethyl-6-(2-methylpyrimidin-5-yl)-2-oxoindolin-1-yl)-3,3-dimethyl-1H-pyrrolo[2,3-b]pyridin-2(3H)-one] |
| 838 | Cc1ncc(-c2ccc3c(c2)N(c2cncc4[nH]ccc24)C(=O)C3(C)C)cn1 [Example 34, 3,3-Dimethyl-6-(2-methylpyrimidin-5-yl)-1-(1H-pyrrolo[2,3-c]pyridin-4-yl)indolin-2-one] |
| 5 | Cc1ncc(-c2ccc3c(c2)N(c2cccc(N4CCOC4=O)n2)C(=O)C3(C)C)cn1 [Example 28, 3-(6-(3,3-Dimethyl-6-(2-methylpyrimidin-5-yl)-2-oxoindolin-1-yl)pyridin-2-yl)oxazolidin-2-one] |
| 227 | Cc1ncc(-c2ccc3c(c2)N(c2cnc(N4[C@@H]5COC[C@H]4C5)cn2)C(=O)C3(C)C)cn1 [Example 51, 1-(5-((1R,5S)-3-Oxa-6-azabicyclo[3.1.1]heptan-6-yl)pyrazin-2-yl)-3,3-dimethyl-6-(2-methylpyrimidin-5-yl)indolin-2-one] |
| 128 | Cc1ncc(-c2ccc3c(c2)N(c2ccc4c(c2)NC(=O)C4(C)C)C(=O)C3(C)C)cn1 [Example 44, 3,3,3′,3′-Tetramethyl-6-(2-methylpyrimidin-5-yl)-[1,6′-biindoline]-2,2′-dione] |
| 61.4 | Cc1ncc(-c2ccc3c(c2)N(c2cnc4c(c2)NC(=O)CO4)C(=O)C3(C)C)cn1 [Example 38, 7-(3,3-Dimethyl-6-(2-methylpyrimidin-5-yl)-2-oxoindolin-1-yl)-1H-pyrido[2,3-b][1,4]oxazin-2(3H)-one] |
| 60.8 | Cc1ncc(-c2ccc3c(c2)N(c2cncc(N4CCCS4(=O)=O)n2)C(=O)C3(C)C)cn1 [Example 57, 1-(6-(1,1-Dioxidoisothiazolidin-2-yl)pyrazin-2-yl)-3,3-dimethyl-6-(2-methylpyrimidin-5-yl)indolin-2-one] |
| 184 | Cc1ncc(-c2ccc3c(c2)N(c2ccc4nnn(C)c4c2)C(=O)C3(C)C)cn1 [Example 48, 3,3-Dimethyl-1-(1-methyl-1H-benzo[d][1,2,3]triazol-6-yl)-6-(2-methylpyrimidin-5-yl)indolin-2-one] |
| 742 | Cc1ncc(-c2ccc3c(c2)N(c2cccc4[nH]ccc24)C(=O)C3(C)C)cn1 [Example 33, 1-(1H-Indol-4-yl)-3,3-dimethyl-6-(2-methylpyrimidin-5-yl)indolin-2-one] |
| 137 | Cc1ncc(-c2ccc3c(c2)N(c2cncc(N4[C@@H]5COC[C@H]4C5)n2)C(=O)C3(C)C)cn1 [Example 13, 1-(6-((1R,5S)-3-Oxa-6-azabicyclo[3.1.1]heptan-6-yl)pyrazin-2-yl)-3,3-dimethyl-6-(2-methylpyrimidin-5-yl)indolin-2-one] |

| IC50 [nM] | SMILES |
| --- | --- |
| 52.2 | Cc1ncc(-c2ccc3c(c2)N(c2ccnc(N4CCOCC4)n2)C(=O)C3(C)C)cn1 [Example 23, 3,3-Dimethyl-6-(2-methylpyrimidin-5-yl)-1-(2-morpholinopyrimidin-4-yl)indolin-2-one] |
| 21.8 | Cc1ncc(-c2ccc3c(c2)N(c2cncc(N4CCC(O)CC4)n2)C(=O)C3(C)C)cn1 [Example 9, 1-(6-(4-Hydroxypiperidin-1-yl)pyrazin-2-yl)-3,3-dimethyl-6-(2-methylpyrimidin-5-yl)indolin-2-one] |
| 993 | Cc1ncc(-c2ccc3c(c2)N(c2cc4c(nn2)N(C2CC2)C(=O)C4(C)C)C(=O)C3(C)C)cn1 [Example 53, 7-Cyclopropyl-3-(3,3-dimethyl-6-(2-methylpyrimidin-5-yl)-2-oxoindolin-1-yl)-5,5-dimethyl-5H-pyrrolo[2,3-c]pyridazin-6(7H)-one] |
| 48 | CC(=O)Nc1cncc(N2C(=O)C(C)(C)c3ccc(-c4cnc(C)nc4)cc32)n1 [Example 5, N-(6-(3,3-Dimethyl-6-(2-methylpyrimidin-5-yl)-2-oxoindolin-1-yl)pyrazin-2-yl)acetamide] |
| 39.6 | Cc1ncc(-c2ccc3c(c2)N(c2cncc(NC4CC4)n2)C(=O)C3(C)C)cn1 [Example 7, 1-(6-(Cyclopropylamino)pyrazin-2-yl)-3,3-dimethyl-6-(2-methylpyrimidin-5-yl)indolin-2-one] |
| 17.6 | Cc1ncc(-c2ccc3c(c2)N(c2cncc(N4CCOCC4)c2)C(=O)C3(C)C)cn1 [Example 26, 3,3-Dimethyl-6-(2-methylpyrimidin-5-yl)-1-(5-morpholinopyridin-3-yl)indolin-2-one] |
| 88.7 | Cc1ncc(-c2ccc3c(c2)N(c2cncc(N4C[C@H]5C[C@@H](C4)O5)n2)C(=O)C3(C)C)cn1 [Example 16, 1-(6-((1R,5S)-6-Oxa-3-azabicyclo[3.1.1]heptan-3-yl)pyrazin-2-yl)-3,3-dimethyl-6-(2-methylpyrimidin-5-yl)indolin-2-one] |
| 238 | Cc1ncc(-c2ccc3c(c2)N(c2cncc(N4C(=O)OC[C@H]4C(C)C)n2)C(=O)C3(C)C)cn1 [Example 21, (R)-3-(6-(3,3-Dimethyl-6-(2-methylpyrimidin-5-yl)-2-oxoindolin-1-yl)pyrazin-2-yl)-4-isopropyloxazolidin-2-one] |
| 346 | CC(=O)Nc1nc(N2C(=O)C(C)(C)c3ccc(-c4cnc(C)nc4)cc32)ccc1C [Example 30, N-(6-(3,3-Dimethyl-6-(2-methylpyrimidin-5-yl)-2-oxoindolin-1-yl)-3-methylpyridin-2-yl)acetamide] |
| 243 | Cc1ncc(-c2ccc3c(c2)N(c2ccc4cc[nH]c4n2)C(=O)C3(C)C)cn1 [Example 58, 3,3-Dimethyl-6-(2-methylpyrimidin-5-yl)-1-(1H-pyrrolo [2,3-b]pyridin-6-yl)indolin-2-one] |
| 202 | Cc1ncc(-c2ccc3c(c2)N(c2cncc(N4CC(C)(C)OC4=O)n2)C(=O)C3(C)C)cn1 [Example 56, 3-(6-(3,3-Dimethyl-6-(2-methylpyrimidin-5-yl)-2-oxoindolin-1-yl)pyrazin-2-yl)-5,5-dimethyloxazolidin-2-one] |
| 202 | Cc1ncc(-c2ccc3c(c2)N(c2ccc4c(C)nn(C)c4n2)C(=O)C3(C)C)cn1 [Example 61, 1-(1,3-Dimethyl-1H-pyrazolo[3,4-b]pyridin-6-yl)-3,3-dimethyl-6-(2-methylpyrimidin-5-yl)indolin-2-one] |
| 253 | Cc1ncc(-c2ccc3c(c2)N(c2cncc(N4CCCC4)n2)C(=O)C3(C)C)cn1 [Example 4, 3,3-Dimethyl-6-(2-methylpyrimidin-5-yl)-1-(6-(pyrrolidin-1-yl)pyrazin-2-yl)indolin-2-one] |
| 466 | Cc1ncc(-c2ccc3c(c2)N(c2cncc(N)c2)C(=O)C3(C)C)cn1 [Example 25, 1-(5-Aminopyridin-3-yl)-3,3-dimethyl-6-(2-methylpyrimidin-5-yl)indolin-2-one] |
| 428 | Cc1ncc(-c2ccc3c(c2)N(c2ccc4ccn(C)c4c2)C(=O)C3(C)C)cn1 [Example 62, 3,3-Dimethyl-1-(1-methyl-1H-indol-6-yl)-6-(2-methylpyrimidin-5-yl)indolin-2-one] |
